Experimental data as given in article PMC7997032, “Organic synthesis and anti-influenza A virus activity of cyclobakuchiols A, B, C, and D” (PLoS ONE, 2021).
“And” between values parts separate entries of the source, which are not always exact repeats. Equal values may be shown once. Read-outs that look alike come from different tables or passages of the source.

Tests used:
A/PR/8/34 viral HA = test system: A/PR/8/34 viral HA; set-up: method as in PMID 26446794; settings: cited from earlier work
Nrf2 = Nrf2 reporter assay (dual luciferase system) in MDCK cells; assay type: cell-based, canine
[1] = test system: NAD(P)H quinone oxidoreductase 1 (Nqo1); assay: RT-qPCR of Nqo1 mRNA in MDCK cells with or without A/PR/8/34 virus; assay type: cell-based, canine; settings: for NQO1 Canis lupus mRNA, ave / NQO1 Canis lupus mRNA, individual replicates: 12.5uM, MDCK, relative to virus - DMSO; for NQO1 Canis lupus mRNA, ave: ave of #1-3 exp; for NQO1 Canis lupus mRNA, individual replicates: replicates 1-3 of #1, #2, #3 exp
A/PR/8/34 viral NA = test system: A/PR/8/34 viral NA; set-up: method as in PMID 26446794; settings: cited from earlier work
[2] = test system: recombinant A/PR/8/34 viral HA protein; set-up: method as in PMID 26446794; settings: cited from earlier work
A/PR/8/34 virus [3] = assay: Immunofluorescence staining of viral NP in influenza A virus-infected MDCK cells; settings: for NP/DAPI (%) ave: average of 9 wells; for NP/DAPI (%): single well
A/WSN/33 virus [4] = assay: as above; settings: for percentage of influenza A NP-positive cells relative to DMSO: 24 h, Fig 4D; for NP/DAPI (%) ave: WSN
Description: MDCK cells were seeded on a 96-well plate at 1 × 10^4 cells/well. […] Each mixture was added to the cells at 37°C in the presence of 5% CO2. […] After influenza A viral infection for 24 h, the cells were fixed with 4% paraformaldehyde in phosphate-buffered saline (PBS) for 30 min at 4°C and subsequently permeabilized by the addition of 0.3% Triton X-100 for 20 min at 25°C. A mouse primary antibody was used to detect the NP of A/PR/8/34 or A/WSN/33 viruses (FluA-NP 4F1; SouthernBiotech, AL, USA). Alexa Fluor488-conjugated goat anti-mouse IgG (H + L) antibody (Thermo Fisher Scientific) was used as the secondary antibody. Cell nuclei were then stained using diamidino-2-phenylindole (DAPI) (Thermo Fisher Scientific). Wells were photographed using a fluorescence microscope (BIOREVO BZ-X700; Keyence, Osaka, Japan). The proportion of influenza A NP-positive cells per DAPI-positive cells was calculated based on measurements recorded using BZ-X Analyzer software (Keyence).

A/CA/7/09 viral NA = test system: A/CA/7/09 viral NA; set-up: method as in PMID 26446794; settings: cited from earlier work
A/CA/7/09 viral HA = test system: A/CA/7/09 viral HA; set-up: method as in PMID 26446794; settings: cited from earlier work
[5] = test system: canine interferon-β (Ifn-β); assay: RT-qPCR of Ifn-β mRNA in MDCK cells with or without A/PR/8/34 virus; assay type: cell-based; settings: for MDCK IFN-b mRNA, ave / MDCK IFN-b mRNA, individual replicates: 12.5uM, relative to virus - DMSO; for MDCK IFN-b mRNA, ave: ave of #1-3 exp; for MDCK IFN-b mRNA, individual replicates: replicates 1-3 of #1, #2, #3 exp
A/PR/8/34 virus [6] = assay type: cell-based
A/PR/8/34 virus [7] = assay: RT-qPCR of viral mRNAs (NP, NS1, PA, PB1, PB2, M2) in infected MDCK cells; assay type: cell-based, influenza A H1N1 virus
A/PR/8/34 virus [8] = assay: Influenza A viral growth assay (viral titer of culture media); assay type: cell-based, influenza A H1N1 virus; set-up: viral titer of culture media, individual replicate / viral titer of culture media, ave: unit not given here
A/WSN/33 virus [9] = assay: Viability of influenza A virus-infected MDCK cells by naphthol blue-black staining; assay type: cell-based, influenza A H1N1 virus; settings: A/WSN/33, MOI 10, 72 h, 0.4–25 μM
Description: MDCK cells were seeded on a 96-well plate (1 × 10^4 cells/well). 2–5 (0.4–25 μM) were mixed with A/PR/8/34, A/CA/7/09, or A/WSN/33 viruses in 10% FBS-supplemented growth medium at a multiplicity of infection (MOI) of ten. DMSO (0.004–1%) or 1 (0.4–25 μM) were used as negative or positive controls, respectively. […] After incubation, the cells were stained with naphthol blue–black, as previously described. Viable cells in each well were stained blue, whereas dead cells remained unstained.

MDCK cells = assay: MTT assay (cytotoxicity against MDCK cells); assay type: cell-based, canine; settings: ≤50 μM, 24 or 72 h
Outline: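 Compounds at 0.8–100 μM (final DMSO up to 1%) in DMEM with 1% BSA and 4 mM L-glutamine incubated with cells 24 or 72 h at 37°C, 5% CO2. Viability measured by MTT.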

[10] = 12.5 μM, 24h WB, average of 3 experiments
[11] = 12.5 μM, 24h WB, single experiment
[12] = 12.5 μM, 24 h post-infection, Fig 7C
[13] = MDCK cells, PR8 virus, relative to DMSO (about 1), ave of #1-3 exp (9 values)
[14] = MDCK cells, PR8 virus, relative to DMSO, replicates 1-3 of #1, #2, #3 exp

C=C[C@@](C)(/C=C/c1ccc(O)cc1)CCC=C(C)C [(+)-(S)-bakuchiol, reference compound]
inhibition of hemagglutination of chicken red blood cells (A/PR/8/34 viral HA): did not inhibit | Nrf2 activation (reporter assay) in contrast to DMSO (Nrf2; 12.5 μM, 24 h, MDCK cells): induce Nrf2 activation | pNQO1-ARE-Luc NRF2 reporter assay, ave (Nrf2; 12.5uM, relative to DMSO trans+, ave of #1-3 exp): 1.302 | pNQO1-ARE-Luc NRF2 reporter assay, individual replicates (Nrf2; 12.5uM, relative to DMSO trans+, two values each of #1, #2, #3 exp): 1.091 and 1.274 and 1.491 and 1.4074 and 1.544 and 1.002 | relative mRNA level of Nqo1 compared with DMSO [1]: significantly upregulated | NQO1 Canis lupus mRNA, ave ([1]; virus + (PR8)): 2.213 | NQO1 Canis lupus mRNA, individual replicates ([1]; virus + (PR8)): 2.486 and 2.782 and 2.118 and 2.457 and 1.645 and 1.778 and 1.772 and 2.442 and 2.434 | NQO1 Canis lupus mRNA, ave ([1]; virus -): 1.91 | NQO1 Canis lupus mRNA, individual replicates ([1]; virus -): 1.8342 and 2.199 and 2.0999 and 1.939 and 1.851 and 1.6659 and 2.003 and 1.832 and 1.767 | relative mRNA level of Nqo1 compared with DMSO ([1]; without A/PR/8/34 virus, 12.5 μM, 24 h): significantly upregulated | inhibition of viral NA activity (A/PR/8/34 viral NA): did not inhibit | inhibition of trypsin digestion of recombinant HA protein [2]: did not inhibit | percentage of influenza A NP-positive cells relative to DMSO (A/PR/8/34 virus [3]; A/PR/8/34, 3.1 μM, 24 h, Fig 4B): significantly reduced | NP/DAPI (%) ave (A/PR/8/34 virus [3]; A/PR/8/34, 3.13 uM): 3.314% | NP/DAPI (%) ave (A/PR/8/34 virus [3]; A/PR/8/34, 6.25 uM): 1.176% | percentage of influenza A NP-positive cells compared with the 5-treatment (A/PR/8/34 virus [3]; A/PR/8/34, 6.3 μM, 24 h, Fig 4B): significantly reduced | NP/DAPI (%) ave (A/PR/8/34 virus [3]; A/PR/8/34, 12.5 uM): 0.5619% | NP/DAPI (%) (A/PR/8/34 virus [3]; A/PR/8/34, 12.5 uM, listed as (+)-S-Bakuchiol): 1.274% and 0.625% and 0.6742% and 0.2454% and 0.2653% and 0.5128% and 0.5703% | NP/DAPI (%) (A/PR/8/34 virus [3]; A/PR/8/34, 12.5 uM, listed as (+)-S-bakuchiol): 0.4184% | NP/DAPI (%) ave (A/PR/8/34 virus [3]; A/PR/8/34, 25 uM): 0.5226% | percentage of influenza A NP-positive cells relative to DMSO (A/PR/8/34 virus [3]; A/PR/8/34, 6.3–12.5 μM, 24 h, Fig 4B): significantly reduced | IC50 (A/PR/8/34 virus [3]; Influenza A virus, PR/8, MDCK, read-out: half maximal (50%) inhibitory concentration (IC50)): 2100 ± 1200 nM | percentage of influenza A NP-positive cells relative to DMSO (A/WSN/33 virus [4]; A/WSN/33, 12.5 μM): significantly reduced | percentage of influenza A NP-positive cells relative to DMSO (A/WSN/33 virus [4]; A/WSN/33, 3.1–6.3 μM): did not significantly reduce | NP/DAPI (%) ave (A/WSN/33 virus [4]; 3.13uM, ave of 9 values (3 exp)): 23.4639% | NP/DAPI (%) ave (A/WSN/33 virus [4]; 6.25uM, ave of 9 values (3 exp)): 22.221% | NP/DAPI (%) ave (A/WSN/33 virus [4]; 12.5uM, ave of 9 values (3 exp)): 22.092% | NP/DAPI (%) ave (A/WSN/33 virus [4]; 25uM, ave of 9 values (3 exp)): 25.1439% | NP/DAPI (%) ave (A/WSN/33 virus [4]; ave summary, 3.13%): 23.4639% | NP/DAPI (%) ave (A/WSN/33 virus [4]; ave summary, 6.25%): 22.221% | NP/DAPI (%) ave (A/WSN/33 virus [4]; ave summary, 12.50%): 22.092% | NP/DAPI (%) ave (A/WSN/33 virus [4]; ave summary, 25%): 25.1439% | inhibition of viral NA activity (A/CA/7/09 viral NA): did not inhibit | inhibition of hemagglutination of chicken red blood cells (A/CA/7/09 viral HA): did not inhibit | virus-induced upregulation of Ifn-β mRNA [5]: significantly reduced | MDCK IFN-b mRNA, ave ([5]; virus +): 3.367 | MDCK IFN-b mRNA, individual replicates ([5]; virus +): 2.6311 and 8.162 and 4.8 and 5.795 and 3.073 and 1.349 and 1.382 and 0.9842 and 2.128 | MDCK IFN-b mRNA, ave ([5]; virus -): 1.794 | MDCK IFN-b mRNA, individual replicates ([5]; virus -): 0.2606 and 0.6947 and 2.008 and 8.353 and 0.6874 and 0.5651 and 1.697 and 0.7342 and 1.151 | expression of NP and NS1 proteins compared with DMSO (western blot) (A/PR/8/34 virus [6]; 12.5 μM, 8, 12 or 24 h post-infection): reduced | NP/b-actin ave (A/PR/8/34 virus [6]; [10]): 0.4577 | NS1/b-actin ave (A/PR/8/34 virus [6]; [10]): 0.476 | NP mean (western blot signal intensity, ImageJ) (A/PR/8/34 virus [6]; [11]): 41.483 and 67.678 and 82.727 | NS1/b-actin (A/PR/8/34 virus [6]; [11]): 0.411 and 0.4433 and 0.5737 | NS1 mean (western blot signal intensity, ImageJ) (A/PR/8/34 virus [6]; [11]): 69.425 and 77.937 and 55.734 | expression level of NP protein compared with the 4 or 5 treatment groups (A/PR/8/34 virus [6]; [12]): significantly reduced | expression levels of NP or NS1 proteins from signal intensities compared with DMSO (A/PR/8/34 virus [6]; [12]): significantly reduced | reduction in the level of NP mRNA compared with 4 and 5 (A/PR/8/34 virus [7]; 12.5 μM, 24 h, Fig 6A): significantly stronger | reduction in the level of PB2 mRNA compared with 5 (A/PR/8/34 virus [7]; 12.5 μM, 24 h, Fig 6E): significantly stronger | relative mRNA expression levels of viral genes (NP, NS1, PA, PB1, PB2, M2) compared with DMSO (A/PR/8/34 virus [7]; 12.5 μM, MOI 0.1, 24 h): significantly decreased | PR8 NP gene expression qPCR, ave (A/PR/8/34 virus [7]; MDCK PR8, NP mRNA, relative (DMSO about 1), average of #1-3 exp (n=9)): 0.01761 | PR8 NP gene expression qPCR, individual replicate (A/PR/8/34 virus [7]; MDCK PR8, NP mRNA, relative (DMSO about 1), replicates of #1-3 exp): 0.006615 and 0.02549 and 0.02199 and 0.02377 and 0.03127 and 0.01502 and 0.01903 and 0.00944 and 0.005898 | PR8 NS1 gene expression qPCR, ave (A/PR/8/34 virus [7]; MDCK PR8, NS1 mRNA, relative (DMSO about 1), average of #1-3 exp (n=9)): 0.01277 | PR8 NS1 gene expression qPCR, individual replicate (A/PR/8/34 virus [7]; MDCK PR8, NS1 mRNA, relative (DMSO about 1), replicates of #1-3 exp): 0.005751 and 0.01688 and 0.01532 and 0.01756 and 0.02149 and 0.008029 and 0.01283 and 0.01159 and 0.005477 | PR8 PA gene expression qPCR, ave (A/PR/8/34 virus [7]; MDCK PR8, PA mRNA, relative (DMSO about 1), average of #1-3 exp (n=9)): 0.01401 | PR8 PA gene expression qPCR, individual replicate (A/PR/8/34 virus [7]; MDCK PR8, PA mRNA, relative (DMSO about 1), replicates of #1-3 exp): 0.007199 and 0.01835 and 0.01386 and 0.0158 and 0.019 and 0.01338 and 0.01452 and 0.01667 and 0.00733 | PR8 M2 gene expression qPCR, ave (A/PR/8/34 virus [7]; [13]): 0.01399 | PR8 PB1 gene expression qPCR, ave (A/PR/8/34 virus [7]; [13]): 0.009536 | PR8 PB2 gene expression qPCR, ave (A/PR/8/34 virus [7]; [13]): 0.01448 | PR8 M2 gene expression qPCR, individual replicates (A/PR/8/34 virus [7]; [14]): 0.006766 and 0.02094 and 0.01741 and 0.01624 and 0.02057 and 0.01274 and 0.01424 and 0.01232 and 0.004647 | PR8 PB1 gene expression qPCR, individual replicates (A/PR/8/34 virus [7]; [14]): 0.005288 and 0.01134 and 0.00694 and 0.008199 and 0.02025 and 0.01044 and 0.005541 and 0.01144 and 0.006386 | PR8 PB2 gene expression qPCR, individual replicates (A/PR/8/34 virus [7]; [14]): 0.00629 and 0.02178 and 0.01747 and 0.01955 and 0.0211 and 0.01165 and 0.01377 and 0.01287 and 0.005833 | viral titer of culture media, ave (A/PR/8/34 virus [8]; A/PR/8/34 (PR8), 12.5uM, 12h, average of #1-3 exp (n=9)): 23333.3 | viral titer of conditioned media compared with DMSO (A/PR/8/34 virus [8]; A/PR/8/34, 12.5 μM, 12–72 h): significantly reduced | naphthol blue-black staining of infected cells (A/WSN/33 virus [9]): not stained | cell viability / toxicity (MTT) (MDCK cells): not affected
